Laboratory results published in US20090111778A1, “2-Keto-Oxazoles as Modulators of Fatty Acid Amide Hydrolase” (priority 2005, published 2009).
Structures can show the parent of a compound that is named as a salt. Where two headings read alike, the source gives them in different places.

Key:
rat FAAH = biological target: T1, rat FAAH (Rattus norvegicus, UniProt P97612); assay: Assay Method 2: FAAH assay, hydrolysis of 3H-anandamide by homogenate of SK-N-MC cells transfected with rat FAAH; type: biochemical; conditions: T84 or transfected SK-N-MC cell homogenate, 3H-AEA tracer 80 nM, rt 1 h, pH 9
T1 construct: expressed in transfected cells
T1 sequence (P97612 1-579): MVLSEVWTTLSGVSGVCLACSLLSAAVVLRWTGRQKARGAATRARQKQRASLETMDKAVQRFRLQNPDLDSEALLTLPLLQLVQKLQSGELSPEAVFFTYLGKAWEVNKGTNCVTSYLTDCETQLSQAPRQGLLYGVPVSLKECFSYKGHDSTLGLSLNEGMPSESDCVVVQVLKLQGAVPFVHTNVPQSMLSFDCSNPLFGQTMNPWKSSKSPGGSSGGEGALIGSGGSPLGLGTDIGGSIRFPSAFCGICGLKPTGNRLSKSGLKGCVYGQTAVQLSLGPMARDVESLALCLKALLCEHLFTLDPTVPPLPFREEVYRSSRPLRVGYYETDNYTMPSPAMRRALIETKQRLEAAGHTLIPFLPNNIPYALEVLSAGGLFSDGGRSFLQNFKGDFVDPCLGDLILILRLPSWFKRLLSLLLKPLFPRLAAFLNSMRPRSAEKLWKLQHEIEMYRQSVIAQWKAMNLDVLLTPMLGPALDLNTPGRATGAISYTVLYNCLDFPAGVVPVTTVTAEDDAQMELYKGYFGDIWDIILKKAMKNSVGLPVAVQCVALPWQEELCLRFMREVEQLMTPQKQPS
Procedure, shortened: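 Rat FAAH activity from homogenate of G418-selected, electroporated SK-N-MC clones was measured as release of radiolabelled ethanolamine from 3H-anandamide. After 1 h at rt, charcoal filtration retained substrate, and scintillation counting of the flow-through gave the read-out.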

human FAAH = biological target: T2, human FAAH (Homo sapiens, UniProt O00519); assay: Assay Method 1: FAAH assay, hydrolysis of 3H-anandamide by homogenate of SK-N-MC cells transfected with human FAAH; type: biochemical
T2 construct: expressed in transfected cells
T2 sequence (O00519 1-579): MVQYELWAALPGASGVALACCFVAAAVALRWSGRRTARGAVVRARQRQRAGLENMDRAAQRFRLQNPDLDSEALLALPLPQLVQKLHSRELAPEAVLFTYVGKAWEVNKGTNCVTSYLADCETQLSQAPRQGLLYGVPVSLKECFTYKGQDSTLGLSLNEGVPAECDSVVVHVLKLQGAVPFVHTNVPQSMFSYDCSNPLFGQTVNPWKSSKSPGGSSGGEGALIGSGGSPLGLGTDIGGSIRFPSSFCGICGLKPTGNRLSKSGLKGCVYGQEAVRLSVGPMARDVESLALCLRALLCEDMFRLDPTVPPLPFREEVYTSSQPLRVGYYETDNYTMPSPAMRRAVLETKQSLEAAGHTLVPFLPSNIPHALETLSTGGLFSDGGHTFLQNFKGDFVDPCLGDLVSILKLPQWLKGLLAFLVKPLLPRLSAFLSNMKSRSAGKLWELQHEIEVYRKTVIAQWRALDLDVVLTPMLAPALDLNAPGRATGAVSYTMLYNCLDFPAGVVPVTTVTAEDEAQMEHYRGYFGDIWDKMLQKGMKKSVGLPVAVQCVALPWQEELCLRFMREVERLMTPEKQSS
Procedure, shortened: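 Homogenate of SK-N-MC cells stably expressing human FAAH (G418-selected clones) incubated with compound and 80 nM [1-3H-ethanolamine]anandamide for 1 h at rt. Released 3H-ethanolamine separated from substrate by activated-charcoal filtration, then counted by scintillation.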

[1] = human FAAH, T84 or transfected SK-N-MC cell homogenate, 3H-AEA tracer 80 nM, rt 1 h, pH 9, read-out: Assay 1 IC50

IC50 (rat FAAH) [nM]	IC50 (human FAAH; [1]) [nM]	Compound	IC50 (human FAAH) [nM]
18	22	O=C(CCCC1CCN(C(=O)CCc2ccc(Oc3ccccc3)cc2)CC1)c1ncco1 [Example 37, 1-Oxazol-2-yl-4-{1-[3-(4-phenoxy-phenyl)-propionyl]-piperidin-4-yl}-butan-1-one]	–
165	705	O=C(CCCC1CCN(S(=O)(=O)c2ccccc2)CC1)c1ncco1 [Example 59, 4-(1-Benzenesulfonyl-piperidin-4-yl)-1-oxazol-2-yl-butan-1-one]	–
750	78	O=C(CCCC1CCN(Cc2ccc(F)c(F)c2)CC1)c1ncco1 [Example 115, 4-[1-(3,4-Difluoro-benzyl)-piperidin-4-yl]-1-oxazol-2-yl-butan-1-one]	–
2	0.7	O=C(CCCC1CCN(C(=O)OCCOCc2ccccc2)CC1)c1ncco1 [Example 66, 4-(4-Oxazol-2-yl-4-oxo-butyl)-piperidine-1-carboxylic acid 2-benzyloxy-ethyl ester]	–
2	0.9	O=C(CCCC1CCN(Cc2cccc(-c3ccccc3)c2)CC1)c1ncco1 [Example 72, 4-(1-Biphenyl-3-ylmethyl-piperidin-4-yl)-1-oxazol-2-yl-butan-1-one]	–
2100	400	Cc1cccc(CN2CCC(CCCC(=O)c3ncco3)CC2)c1C [Example 94, 4-[1-(2,3-Dimethyl-benzyl)-piperidin-4-yl]-1-oxazol-2-yl-butan-1-one]	–
1000	850	O=C(CCCC1CCN(Cc2ccc(F)cc2)CC1)c1ncco1 [Example 7, 4-[1-(4-Fluoro-benzyl)-piperidin-4-yl]-1-oxazol-2-yl-butan-1-one]	–
323	258	O=C(CCCC1CCN(Cc2ccccc2)CC1)c1ncc(-c2ccco2)o1 [Example 121, 4-(1-Benzyl-piperidin-4-yl)-1-(5-furan-2-yl-oxazol-2-yl)-butan-1-one]	–
141	9	O=C(CCCC1CCN(Cc2ccc(-c3cccs3)nc2)CC1)c1ncco1 [Example 110, 1-Oxazol-2-yl-4-[1-(6-thiophen-2-yl-pyridin-3-ylmethyl)-piperidin-4-yl]-butan-1-one]	–
37	2	COc1ccc(S(=O)(=O)N2CCC(CCCC(=O)c3ncco3)CC2)cc1 [Example 61, 4-[1-(4-Methoxy-benzenesulfonyl)-piperidin-4-yl]-1-oxazol-2-yl-butan-1-one]	–
7000	370	O=C(CCCC1CCN(Cc2ccc3cccnc3n2)CC1)c1ncco1 [Example 116, 4-(1-[1,8]Naphthyridin-2-ylmethyl-piperidin-4-yl)-1-oxazol-2-yl-butan-1-one]	–
86	29	O=C(CCCC1CCN(Cc2cnc3ccccc3c2)CC1)c1ncco1 [Example 21, 1-Oxazol-2-yl-4-(1-quinolin-3-ylmethyl-piperidin-4-yl)-butan-1-one]	–
5	3	CC(C)c1ccc(CN2CCC(CCCC(=O)c3ncco3)CC2)cc1 [Example 22, 4-[1-(4-Isopropyl-benzyl)-piperidin-4-yl]-1-oxazol-2-yl-butan-1-one]	–
889	848	O=C(CCCC1CCN(C(=O)COc2ccccc2)CC1)c1ncco1 [Example 33, 1-Oxazol-2-yl-4-[1-(2-phenoxy-acetyl)-piperidin-4-yl]-butan-1-one]	–
5000	1300	COc1ccc(CN2CCC(CCCC(=O)c3ncco3)CC2)cn1 [Example 74, 4-[1-(6-Methoxy-pyridin-3-ylmethyl)-piperidin-4-yl]-1-oxazol-2-yl-butan-1-one]	–

Continued, molecule first:

Compound	IC50 (rat FAAH) [nM]	IC50 (human FAAH; [1]) [nM]	IC50 (human FAAH) [nM]
O=C(CCCC1CCN(C(=O)Cc2ccccc2)CC1)c1ncco1 [Example 27, 1-Oxazol-2-yl-4-(1-phenylacetyl-piperidin-4-yl)-butan-1-one]	1300	500	–
CC(C)c1cccc(CN2CCC(CCCC(=O)c3ncco3)CC2)c1 [Example 140, 4-[1-(3-Isopropyl-benzyl)-piperidin-4-yl]-1-oxazol-2-yl-butan-1-one]	3	1	–
O=C(CCCC1CCN(Cc2ccc(Br)cc2)CC1)c1ncco1 [Example 91, 4-[1-(4-Bromo-benzyl)-piperidin-4-yl]-1-oxazol-2-yl-butan-1-one]	270	45	–
CC(C)c1ccc(CN2CCC(CCCC(=O)c3ncc(-c4cccc(C(=O)O)n4)o3)CC2)cc1 [Example 148, 6-(2-{4-[1-(4-isopropyl-benzyl)-piperidin-4-yl]-butyryl}-oxazol-5-yl)-pyridine-2-carboxylic acid trifluoroacetic acid salt]	56	60	–
Cc1ccc(CN2CCC(CCCC(=O)c3ncco3)CC2)cc1 [Example 18, 4-[1-(4-Methyl-benzyl)-piperidin-4-yl]-1-oxazol-2-yl-butan-1-one]	1000	400	–
CC(C)S(=O)(=O)N1CCC(CCCC(=O)c2ncco2)CC1 [Example 56, 1-Oxazol-2-yl-4-[1-(propane-2-sulfonyl)-piperidin-4-yl]-butan-1-one]	3350	–	142
CCOC(=O)N1CCC(CCCC(=O)c2ncco2)CC1 [Example 64, 4-(4-Oxazol-2-yl-4-oxo-butyl)-piperidine-1-carboxylic acid ethyl ester]	14	6	–
CC(C)(C)OC(=O)N1CCC(CCCC(=O)c2ncc(-c3ccccn3)o2)CC1 [Example 119, 4-[4-Oxo-4-(5-pyridin-2-yl-oxazol-2-yl)-butyl]-piperidine-1-carboxylic acid tert-butyl ester]	3	0.8	–
O=C(CCCC1CCN(Cc2cccc(OC3CCCCC3)c2)CC1)c1ncco1 [Example 136, 4-[1-(3-Cyclohexyloxy-benzyl)-piperidin-4-yl]-1-oxazol-2-yl-butan-1-one]	2	1	–
CCCCCCCN1CCC(CCCC(=O)c2ncco2)CC1 [Example 126, 4-(1-Heptyl-piperidin-4-yl)-1-oxazol-2-yl-butan-1-one]	810	23	–
O=C(CCCC1CCN(Cc2ccc(Cl)cc2)CC1)c1ncco1 [Example 9, 4-[1-(4-Chloro-benzyl)-piperidin-4-yl]-1-oxazol-2-yl-butan-1-one]	354	66	–
COCCOC(=O)N1CCC(CCCC(=O)c2ncco2)CC1 [Example 65, 4-(4-Oxazol-2-yl-4-oxo-butyl)-piperidine-1-carboxylic acid 2-methoxy-ethyl ester]	240	69	–
O=C(CCCC1CCN(Cc2cccc(Oc3ccccc3)c2)CC1)c1ncco1 [Example 2, 1-Oxazol-2-yl-4-[1-(3-phenoxy-benzyl)-piperidin-4-yl]-butan-1-one]	4.7	0.4	–
O=C(CCCC1CCN(Cc2cccc(Cl)c2)CC1)c1ncco1 [Example 10, 4-[1-(3-Chloro-benzyl)-piperidin-4-yl]-1-oxazol-2-yl-butan-1-one]	80	60	–
O=C(O)c1cccc(-c2cnc(C(=O)CCCC3CCN(Cc4cccc(-c5ccccc5)c4)CC3)o2)n1 [Example 149, 6-{2-[4-(1-Biphenyl-3-ylmethyl-piperidin-4-yl)-butyryl]-oxazol-5-yl}-pyridine-2-carboxylic acid trifluoroacetic acid salt]	2	9	–
O=C(CCCC1CCN(C(=O)CC2CCCC2)CC1)c1ncco1 [Example 48, 4-[1-(2-Cyclopentyl-acetyl)-piperidin-4-yl]-1-oxazol-2-yl-butan-1-one]	216	100	–
N#Cc1cccc(-c2ccc(CN3CCC(CCCC(=O)c4ncco4)CC3)cn2)c1 [Example 112, 3-{5-[4-(4-Oxazol-2-yl-4-oxo-butyl)-piperidin-1-ylmethyl]-pyridin-2-yl}-benzonitrile]	174	14	–
